pIC50: −log10 of the molar value.
Columns and labels:
Format in all cases: cell-based
[1] = tested on: IL-12p70 (the complex of IL-12p35 and p40); assay: IL-12p70 production inhibition in macrophages derived from mouse abdomen (IFN-γ/SAC stimulation, ELISA); conditions: Macrophage; mouse (Balb/c) abdominal macrophages, 100 ng/mL mouse IFN-γ + 0.05% SAC, overnight; TFA salts tested where prepared as such; read-out: IL-12p70-Inhibitory Activity IC50
Procedure, shortened: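 Thioglycolate-elicited adherent peritoneal macrophages from female Balb/c mice were collected 5–6 days after dosing. Cells were stimulated overnight with 100 ng/mL mouse IFN-γ plus 0.05% (v/v) killed S. aureus Cowan I, with compound present. IL-12p70, IL-12p40 and TNF-α in supernatants were measured by ELISA and IC50s derived, with cell survival also checked.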

TNF-α = TNF-α production inhibition in macrophages derived from mouse abdomen (IFN-γ/SAC stimulation, ELISA); conditions: Macrophage; mouse (Balb/c) abdominal macrophages, 100 ng/mL mouse IFN-γ + 0.05% SAC, overnight; TFA salts tested where prepared as such; read-out: TNF-α-Inhibitory Activity IC50
Experimental: One milliliter each of a 3% (w/v) thioglycolate solution was intraperitoneally administered to mice (female Balb/c mice), the abdominal cells of each mouse were recovered after 5 or 6 days from the administration of the thioglycolate solution and the adhesive cells were collected and used in the exaluation procedures. To a culture medium containing such adhesive cells, there were added 100 ng/mL of mouse interferon-γ and a 0.05% (v/v) liquid containing killed cells derived from Staphylococcus aureus Cowan I strain (SAC) and a candidate compound and then the mixture was cultivated overnight. After the completion of the cultivation, the survival ratios were determined, there were quantitatively determined the quantities of IL-12p70 (the complex of IL-12p35 and p40) and IL-12p40 or TNF-α according to the ELISA assays while making use of the recovered supernatant of the culture medium and the 50% production-inhibitory concentration (IC50) was calculated for each case (see Table 1 and Tables 1-9 for IL-12p70 and TNF-α and Tables 1 to 10 for IL-12p40).

[2] = tested on: IL-12p70 (the complex of IL-12p35 and p40); assay: IL-12p70 production inhibition in whole blood of mouse (IFN-γ/SAC stimulation, ELISA); conditions: mouse (Balb/c) whole blood, EDTA, 100 ng/mL mouse IFN-γ + 1.25% SAC, overnight; TFA salts tested where prepared as such
Experimental: The blood was recovered from the mice (female Balb/c mice) (containing added EDTA) and it was used for the evaluation. To a cell culture medium, there were added 100 ng/mL of mouse interferon-γ, 1.25% (v/v) of a liquid containing killed cells derived from Staphylococcus aureus Cowan I strain (SAC) and a candidate compound, the resulting mixture was diluted to a volume equivalent to the blood and then the diluted medium was cultivated overnight. After the completion of the cultivation, the amount of IL-12p70 (the complex of IL-12p35 and p40) was quantitatively determined according to the ELISA assays while making use of the recovered supernatant of the culture medium and the 50% production-inhibitory concentrations (IC50) were calculated for Compounds 38, 80, 82, 83, 84, 85, 87, 90 and 91. (see Table 3).

## Cc1cccc(CNNc2cc(N3CCOCC3)n3nc(-c4ccccc4)cc3n2)c1 [Compound 34, N-(3-methyl-benzyl)-N′-(7-morpholin-4-yl-2-phenyl-pyrazolo[1,5-a]pyrimidin-5-yl)-hydrazine]
[1]
  pIC50: 7.62
TNF-α
  pIC50: < 5.00

## C(=N\Nc1cc(N2CCOCC2)n2nc(-c3ccccn3)cc2n1)/c1c[nH]c2ccccc12 [Compound 36, N-(1H-indol-3-yl-methylidene)-N′-(7-morpholin-4-yl-2-pyridin-2-yl-pyrazolo[1,5-a]pyrimidin-5-yl)-hydrazine]
[1]
  pIC50: 8.15
TNF-α
  pIC50: < 5.00

## Cc1cccc(/C=N/Nc2cc(N3CCOCC3)n3nc(-c4cccnc4)cc3n2)c1 [Compound 38, N-(3-methyl-benzylidene)-N′-(7-morpholin-4-yl-2-pyridin-3-yl-pyrazolo[1,5-a]pyrimidin-5-yl)-hydrazine]
[1]
  pIC50: 7.96
TNF-α
  pIC50: < 5.00
[2]
  pIC50: 5.57

## COc1ccc(C)cc1/C=N/Nc1cc(N2CCOCC2)n2nc(-c3ccccc3)cc2n1 [Compound 40, N-(2-methoxy-5-methyl-benzylidene)-N′-(7-morpholin-4-yl-2-phenyl-pyrazolo[1,5-a]pyrimidin-5-yl)-hydrazine]
[1]
  pIC50: 7.19
TNF-α
  pIC50: < 5.00

## Cc1cccc(/C=N/Nc2cc(N3CCOCC3)n3nc(-c4ccc(NN5CCOCC5)cc4)cc3n2)c1 [Compound 68]
[1]
  pIC50: 8.06
TNF-α
  pIC50: < 5.00

## Cc1cccc(/C=N/Nc2cc(N3CCOCC3)n3nc(-c4ccc(N5CCSCC5)cc4)cc3n2)c1 [Compound 69, N-(3-methyl-benzylidene)-N′-{7-morpholin-4-yl-2-(4-thiomorpholin-4-yl-phenyl)-pyrazolo[1,5-a]pyrimidin-5-yl}-hydrazine]
[1]
  pIC50: 8.09
TNF-α
  pIC50: < 5.00

## Cc1cccc(/C=N/Nc2cc(N3CCOCC3)n3nc(C)cc3n2)c1 [Compound 79, N-(3-methyl-benzylidene)-N′-(2-methyl-7-morpholin-4-yl-pyrazolo[1,5-a]pyrimidin-5-yl)-hydrazine]
[1]
  pIC50: 6.66
TNF-α
  pIC50: < 5.00

## Cc1cc2nc(N/N=C/c3c[nH]c4ccccc34)cc(N3CCOCC3)n2n1 [Compound 80, N-(1H-indol-3-yl-methylidene)-N′-(2-methyl-7-morpholin-4-yl-pyrazolo[1,5-a]pyrimidin-5-yl)-hydrazine]
[1]
  pIC50: 6.80
TNF-α
  pIC50: < 5.00
[2]
  pIC50: 5.31

## CCOC(=O)c1cc2nc(N/N=C/c3cccc(C)c3)cc(N3CCOCC3)n2n1 [Compound 81, N-(2-ethoxycarbonyl-7-morpholin-4-yl-pyrazolo[1,5-a]-pyrimidin-5-yl)-N′-(3-methyl-benzylidene)-hydrazine]
[1]
  pIC50: 7.26
TNF-α
  pIC50: < 5.00

## C(=N\Nc1cc(N2CCOCC2)n2nc(-c3cccnc3)cc2n1)/c1c[nH]c2ccccc12 [Compound 82, N-(1H-indol-3-yl-methylidene)-N′-(7-morpholin-4-yl-2-pyridin-3-yl-pyrazolo[1,5-a]pyrimidin-5-yl)-hydrazine]
[1]
  pIC50: 8.39
TNF-α
  pIC50: < 5.00
[2]
  pIC50: 5.49

## C(=N\Nc1cc(N2CCOCC2)n2nc(-c3ccncc3)cc2n1)/c1c[nH]c2ccccc12 [Compound 84, N-(1H-indol-3-yl-methylidene)-N′-(7-morpholin-4-yl-2-pyridin-4-yl-pyrazolo[1,5-a]pyrimidin-5-yl)-hydrazine]
[1]
  pIC50: 8.49
TNF-α
  pIC50: < 5.00
[2]
  pIC50: 5.64

## Cc1cccc(/C=N/Nc2cc(N3CCOCC3)n3ncc(-c4ccccn4)c3n2)c1 [Compound 87, N-(3-methyl-benzylidene)-N′-(7-morpholin-4-yl-3-pyridin-2-yl-pyrazolo[1,5-a]pyrimidin-5-yl)-hydrazine]
[2]
  pIC50: 5.62

## C(=N\Nc1cc(N2CCOCC2)n2ncc(-c3ccccn3)c2n1)/c1c[nH]c2ccccc12 [Compound 88, N-(1H-indol-3-yl-methylidene)-N′-(7-morpholin-4-yl-3-pyridin-2-yl-pyrazolo[1,5-a]pyrimidin-5-yl)-hydrazine]
[1]
  pIC50: 6.38
TNF-α
  pIC50: < 5.00

## Cc1cccc(/C=N/Nc2cc(N3CCOCC3)n3nc(-c4cnccn4)cc3n2)c1 [Compound 90, N-(3-methyl-benzylidene)-N′-(7-morpholin-4-yl-2-pyrazin-2-yl-pyrazolo[1,5-a]pyrimidin-5-yl)-hydrazine]
[1]
  pIC50: 8.08
[2]
  pIC50: 5.60

## C(=N\Nc1cc(N2CCOCC2)n2nc(-c3ccncc3)cc2n1)/c1ccsc1 [Compound 91, N-(7-morpholin-4-yl-2-pyridin-4-yl-pyrazolo[1,5-a]-pyrimidin-5-yl)-N′-thiophen-3-yl-methylidene-hydrazine]
[1]
  pIC50: 7.32
[2]
  pIC50: 5.34

## Cc1cccc(/C=N/Nc2cc(N3CCOCC3)n3nc(-c4ccnnc4)cc3n2)c1 [Compound 94, N-(3-methyl-benzylidene)-N-(7-morpholin-4-yl-2-pyridazin-4-yl-pyrazolo[1,5-a]pyrimidin-5-yl)-hydrazine]
[1]
  pIC50: 7.74
[2]
  pIC50: 6.00

## C(=N\Nc1cc(N2CCOCC2)n2nc(-c3ccncc3)cc2n1)/c1coc2ccccc12 [Compound 95]
[1]
  pIC50: 7.55
[2]
  pIC50: 6.09

## C(=N\Nc1cc(N2CCOCC2)n2nc(-c3ccncc3)cc2n1)/c1cc2ccccc2o1 [Compound 96]
[1]
  pIC50: 7.30
[2]
  pIC50: 5.96

## C(=N\Nc1cc(N2CCOCC2)n2nc(-c3ccnnc3)cc2n1)/c1c[nH]c2ccccc12 [Compound 97, N-(1H-indol-3-yl-methylidene)-N-(7-morpholin-4-yl-2-pyridazin-4-yl-pyrazolo[1,5-a]pyrimidin-5-yl)-hydrazine]
[1]
  pIC50: 8.08
[2]
  pIC50: 5.49

## C(=N\Nc1cc(N2CCOCC2)n2nc(-c3ccncc3)cc2n1)/c1ccc2[nH]ccc2c1 [Compound 104]
[1]
  pIC50: 7.00
[2]
  pIC50: 5.60

## C(=N\Nc1cc(N2CCOCC2)n2nc(-c3ccncc3)cc2n1)/c1cc2ccccc2s1 [Compound 108, N-benzo[b]thiophen-2-yl-methylidene-N′-(7-morpholin-4-yl-2-pyridin-4-yl-pyrazolo[1,5-a]pyrimidin-5-yl)-hydrazine]
[1]
  pIC50: 6.96
[2]
  pIC50: 5.43

## CCc1cccc(/C=N/Nc2cc(N3CCOCC3)n3nc(-c4cnccn4)cc3n2)c1 [Compound 116, N-(3-ethyl-benzylidene)-N-(7-morpholin-4-yl-2-pyrazin-2-yl-pyrazolo[1,5-a]pyrimidin-5-yl)-hydrazine]
[1]
  pIC50: 7.31
[2]
  pIC50: 5.42

## CCc1cccc(/C=N/Nc2cc(N3CCOCC3)n3nc(-c4ccncc4)cc3n2)c1 [Compound 118, N-(3-ethyl-benzylidene)-N-(7-morpholin-4-yl-2-pyridin-4-yl-pyrazolo[1,5-a]pyrimidin-5-yl)-hydrazine]
[1]
  pIC50: 7.54
[2]
  pIC50: 6.19

## C(=N\Nc1cc(N2CCOCC2)n2nc(-c3ccncc3)cc2n1)/c1ccnc2ccccc12 [Compound 122, N-(7-morpholin-4-yl-2-pyridin-4-yl-pyrazolo[1,5-a]-pyrimidin-5-yl)-N′-quinolin-4-yl-methylidene-hydrazine]
[1]
  pIC50: 8.25
[2]
  pIC50: 5.62

## Cc1cccc(/C=N/Nc2cc(N3CC4COCC4C3)n3nc(-c4ccncc4)cc3n2)c1 (centres unmarked) [Compound 123, N-(3-methyl-benzylidene)-N′-[2-pyridin-4-yl-7-(tetrahydro-furo[3,4-c]pyrrol-5-yl)-pyrazolo[1,5-a]pyrimidin-5-yl]-hydrazine]
[1]
  pIC50: 6.52
[2]
  pIC50: 6.36

## C(=N\Nc1cc(N2CCOCC2)n2nc(-c3ccncc3)cc2n1)/c1c[nH]c2ncccc12 [Compound 126, N-(7-morpholin-4-yl-2-pyridin-4-yl-pyrazolo[1,5-a]-pyrimidin-5-yl)-N′-(1H-pyrrolo[2,3-b]pyridin-3-yl-methylidene)-hydrazine]
[1]
  pIC50: 6.96
[2]
  pIC50: 6.12

## C(=N\Nc1cc(N2CCOCC2)n2nc(N3CCOCC3)cc2n1)/c1c[nH]c2ccccc12 [Compound 128, N-(1H-indol-3-yl-methylidene)-N-(2,7-di-morpholin-4-yl-pyrazolo[1,5-a]pyrimidin-5-yl)-hydrazine]
[1]
  pIC50: 6.85
[2]
  pIC50: 5.34

## Nc1cccc(/C=N/Nc2cc(N3CCOCC3)n3nc(-c4ccccc4)cc3n2)c1 [Compound 140, N-(3-amino-benzylidene)-N-(7-morpholin-4-yl-2-phenyl-pyrazolo[1,5-a]pyrimidin-5-yl)-hydrazine]
[1]
  pIC50: 6.77
TNF-α
  pIC50: < 5.00

Reference: patent US8314098B2, “Pyrazolo-pyrimidine compounds” (Ajinomoto Co., Inc., priority 2008, dated 2012)
